# Test results: PubChem BioAssay AID1552 (Sanford-Burnham Center for Chemical Genomics, 2009)
# Activity calls are given as the source filed them. The rule behind the calls is not given here.
# Target: Ubiquitin-conjugating enzyme E2 N (Homo sapiens) (UniProt P61088)
# Assay: NMR detection of UBE2N ligand binding – biophysical, purified protein (AID 1552)
# Conditions: NMR binding to purified UBE2N
# Ubiquitin-conjugating enzyme E2 N (Homo sapiens), sequence (P61088 whole entry, looked up): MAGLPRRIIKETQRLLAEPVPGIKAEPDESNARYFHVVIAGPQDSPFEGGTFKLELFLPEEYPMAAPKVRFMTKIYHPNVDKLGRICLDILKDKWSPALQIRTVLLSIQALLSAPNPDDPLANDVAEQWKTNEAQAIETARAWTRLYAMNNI
row,SMILES,Kd
1,COC(=O)[C@@H]1OC(=O)[C@H]2O[C@@]23[C@@]1(C)CCC1[C@@]2(C)CCC(=O)C(C)(C)C2C[C@@H](OC(C)=O)[C@]13C (some centres undefined),> 4 mM (inactive)
2,CC1(C)C2CC[C@]3(C)C(C(=O)C=C4[C@H]5C[C@@](C)(C(=O)O)CC[C@]5(C)CC[C@]43C)[C@@]2(C)CC[C@@H]1O (some centres undefined),> 4 mM (inactive)
3,N/C(=N/S(=O)(=O)c1cccs1)c1ccccc1,> 4 mM (inactive)
4,CCOC(=O)C1CCNCC1,> 4 mM (inactive)
5,O=C(O)C1CSC(c2cccnc2)N1 (centres undefined),> 4 mM (inactive)
6,NC(=S)CN1CCCC1=O,> 4 mM (inactive)
7,NC(=O)CNC(=O)c1ccc2ccccc2n1,> 4 mM (inactive)
8,CN1CCN(CC(=O)NC2CCCCC2)CC1,> 4 mM (inactive)
9,CC(C)=CC1C(CO)C1(C)C (centres undefined),> 4 mM (inactive)
10,COc1cc(-c2coc3cc(OC)c(OC)c(OC)c3c2=O)cc(OC)c1OC,> 4 mM (inactive)
11,O=[N+]([O-])c1cccc(-c2nnco2)c1,> 4 mM (inactive)
12,CCC(=O)Nc1cccc(NC(C)=O)c1,> 4 mM (inactive)
13,O=C1CSC(=Nc2ccccc2[N+](=O)[O-])N1,> 4 mM (inactive)
14,S=c1nc[nH]c2c1cnn2-c1ccccc1,> 4 mM (inactive)
15,CC(=O)Nc1cccs1,> 4 mM (inactive)
16,N#Cc1cnn(Cc2ccc(Cl)cc2)c1N,> 4 mM (inactive)
17,CP(C)(=O)CCC(=O)O,> 4 mM (inactive)
18,CC(C)C(=O)NCC(c1ccco1)N1CCOCC1 (centres undefined),> 4 mM (inactive)
19,CC(=O)Nc1ccc(N2C(=O)C=CC2=O)cc1C,> 4 mM (inactive)
20,CN1CN/C(=N\[N+](=O)[O-])N(c2ccccc2)C1,> 4 mM (inactive)
21,O=C(O)CCCN1CNC(=S)NC1,> 4 mM (inactive)
22,NN1C(=O)CSC1=Nc1ccccc1,> 4 mM (inactive)
23,O=c1[nH]c2ccc(S(=O)(=O)NC3CC3)cc2[nH]1,> 4 mM (inactive)
24,Cn1c(=O)c2c([nH]c(=O)n2C)n(C)c1=O,> 4 mM (inactive)

row,SMILES,Kd
1,Cc1c(C(=O)Nc2ccccc2)sc(N)c1C(N)=O,> 4 mM (inactive)
2,Cc1cc2c(=O)n(C)c(SCC(N)=O)nc2s1,> 4 mM (inactive)
3,CN(C)C(=O)CSc1nc2ccccc2c(=O)[nH]1,> 4 mM (inactive)
4,NC1C2CC3CC1CC(O)(C3)C2 (centres undefined),> 4 mM (inactive)
5,Cc1noc(C)c1C(=O)N1CCC2(CC1)OCCO2,> 4 mM (inactive)
6,O=C1CSC(=O)N1CN1CCCC1,> 4 mM (inactive)
7,Cc1cc(NC(=O)c2ccc3c(c2)OCCO3)no1,> 4 mM (inactive)
8,FC(F)(F)c1nnc2ccc(N3CCOCC3)nn12,> 4 mM (inactive)
9,O=C1CC(c2c[nH]c3ccccc23)C(=O)N1 (centres undefined),> 4 mM (inactive)
10,Cc1oc(S(=O)(=O)N2CCCCC2)cc1C(=O)O,> 4 mM (inactive)
11,Nc1cc(F)cc(F)c1,> 4 mM (inactive)
12,CC(=O)Nc1nc(C)nc(-c2ccccc2)c1C(C)=O,> 4 mM (inactive)
13,COc1ccc2c(c1)OCC(Cc1ccc(OC)c(OC)c1)C2=O (centres undefined),> 4 mM (inactive)
14,O=[n+]1c2c(n([O-])c3ccccc31)CCCC2,> 4 mM (inactive)
15,O=C(Nc1cccc2cccnc12)c1cccnc1,> 4 mM (inactive)
16,CC1CCC2(OC1)OC1CC3C4CC[C@H]5C[C@@H](O)CC[C@]5(C)C4CC(=O)[C@]3(C)C1C2C (some centres undefined),> 4 mM (inactive)
17,O=C(O)c1cccnc1N1CCCC1,> 4 mM (inactive)
18,NC(Cn1ccc(=O)c(O)c1)C(=O)O (centres undefined),> 4 mM (inactive)
19,CCOC(=O)CNc1ncnc2c1nnn2CC,> 4 mM (inactive)
20,OCCNC(=S)Nc1ccc(F)cc1,> 4 mM (inactive)
21,CN1CCN(C(=O)c2cc(-c3ccccc3)on2)CC1,> 4 mM (inactive)
22,COc1nc(-c2ccccc2)ccc1-c1noc(C)n1,> 4 mM (inactive)
23,C[C@@H]1CC[C@@]23CCC4(C)[C@@](C=CC5[C@@]6(C)CC[C@H](O)C(C)(C)C6CC[C@]54C)(OC2=O)C3[C@H]1C (some centres undefined),> 4 mM (inactive)
24,Nc1oncc1-c1ccccn1,> 4 mM (inactive)

row,SMILES,Kd
1,COc1c2ccoc2cc2oc(C)cc(=O)c12,> 4 mM (inactive)
2,CCn1cnc(C(=O)NC)c1C(=O)NC,> 4 mM (inactive)
3,Cc1nc(N)sc1C(=O)N/N=C/c1ccncc1,> 4 mM (inactive)
4,COC(=O)c1sc(N)nc1C,> 4 mM (inactive)
5,O=C(c1nc2ccccc2s1)N1CCSCC1,> 4 mM (inactive)
6,CNC(=O)C1CC(=O)N(c2ccc(O)cc2)C1 (centres undefined),> 4 mM (inactive)
7,CC(=O)c1cccc(NC(=O)C=C(C)C)c1,> 4 mM (inactive)
8,CCOc1ccc(C(=O)c2ccc(O)c(O)c2O)cc1,> 4 mM (inactive)
9,COC(=O)C[C@H]1C(C)(C)C(=O)[C@@H]2CC3C4=CC(=O)O[C@@H](c5ccoc5)[C@]4(C)CCC3C1(C)C2=O (some centres undefined),> 4 mM (inactive)
10,CCCn1c(C)cc(=O)[nH]c1=O,> 4 mM (inactive)
11,O=C(NCc1cccs1)c1ccc2c(c1)OCCO2,> 4 mM (inactive)
12,CCc1ccc(C(=O)N2CCCC2)s1,> 4 mM (inactive)
13,Cc1cc(C)nc(/N=C(\N)N2CCc3ccccc32)n1,> 4 mM (inactive)
14,O=C1C=CC(=O)c2c(O)cccc21,> 4 mM (inactive)
15,CC(C)(C#N)O[C@@H]1O[C@H](CO)[C@@H](O)[C@H](O)[C@H]1O,> 4 mM (inactive)
16,Nc1nc2c3ccccc3nc(Cc3ccccc3)n2n1,> 4 mM (inactive)
17,CCN1CC2(C)CC[C@H](OC)[C@]34C2[C@H](O)C2(OCO[C@@]25C[C@H](OC)[C@H]2C[C@]3(O)C5[C@H]2O)C14,> 4 mM (inactive)
18,COC(=O)c1cncn1C,> 4 mM (inactive)
19,CC(=O)O[C@H]1CC[C@@]2(C)C(CC[C@]3(C)C2C(=O)C=C2C4[C@@H](C)[C@H](C)CC[C@]4(C(=O)O)CC[C@]23C)C1(C)C (some centres undefined),> 4 mM (inactive)
20,COC(=O)Nc1nc2c(s1)CCCC2,> 4 mM (inactive)
21,CC(=O)Oc1ccc(O)cc1,> 4 mM (inactive)
22,Nc1ccc2nsnc2c1,> 4 mM (inactive)
23,Cc1cc(O)cc(O)c1C(=O)O,> 4 mM (inactive)
24,CC(=O)Nc1ccc(C(=O)N2CCOCC2)cc1Cl,> 4 mM (inactive)

row,SMILES,Kd
1,CCCCC(Nc1n[nH]c(=O)[nH]c1=O)C(=O)O (centres undefined),> 4 mM (inactive)
2,NC(=O)C(=O)NCc1ccc(Cl)cc1,> 4 mM (inactive)
3,Cc1cc(C)c(C(N)=O)c(=S)[nH]1,> 4 mM (inactive)
4,Cc1n[nH]c(=O)c2ncn(C)c12,> 4 mM (inactive)
5,S=c1[nH]cnc2sccc12,> 4 mM (inactive)
6,C=CCc1ccc(OC(=O)c2ccccc2)c(OC)c1,> 4 mM (inactive)
7,O=c1cccc2n1C[C@H]1CNCC2C1,> 4 mM (inactive)
8,OCc1ccccc1O[C@@H]1O[C@H](CO)[C@@H](O)[C@H](O)[C@H]1O,> 4 mM (inactive)
9,OCC1COc2ccccc2C1 (centres undefined),> 4 mM (inactive)
10,O=C1CC(c2ccccc2)n2ncnc2N1 (centres undefined),> 4 mM (inactive)
11,OCc1ccc(-n2cccn2)cc1,> 4 mM (inactive)
12,O=C(O)c1cn(-c2ccccc2)nc1-c1cccnc1,> 4 mM (inactive)
13,CC(=O)O[C@H]1CCC2(C)C3=C(CCC2C1(C)C)[C@]1(C)CCC(C(C)CCC=C(C)C)[C@@]1(C)CC3 (some centres undefined),> 4 mM (inactive)
14,CC(=O)c1c(C)n([O-])c2ccccc2[n+]1=O,> 4 mM (inactive)
15,CC(=O)Nc1ccc(NC(=O)/C=C\C(=O)O)cc1,> 4 mM (inactive)
16,CCSc1nc2ccccc2[nH]1,> 4 mM (inactive)
17,COC(=O)N1CCN(c2ccc(OC)cc2)CC1,> 4 mM (inactive)
18,O=C(NC1=NCCS1)c1ccc2snnc2c1,> 4 mM (inactive)
19,Cc1cc(=O)n2[nH]c(N)nc2n1,> 4 mM (inactive)
20,CC1=CC2C(C(C)C)CCC(C)(O)C2CC1 (centres undefined),> 4 mM (inactive)
21,Cc1nc(SCC#N)c2c(C)c(C)sc2n1,> 4 mM (inactive)
22,Nc1ccc(Oc2ccccc2)nc1,> 4 mM (inactive)
23,COc1cccc(OC)c1C(=O)N1CCOCC1,> 4 mM (inactive)
24,O=C1CCCc2c(O)cccc21,> 4 mM (inactive)

row,SMILES,Kd
1,C1CCN2C[C@@H]3C[C@H](CN4CCCC[C@@H]34)[C@H]2C1,> 4 mM (inactive)
2,OC1CSc2ncnn2C1 (centres undefined),> 4 mM (inactive)
3,OCCN1CCN(C(=S)c2ccc(Cl)cc2)CC1,> 4 mM (inactive)
4,NC1CS(=O)(=O)CC1O (centres undefined),> 4 mM (inactive)
5,C=C(C)[C@H]1CC=C(C(=O)O)CC1,> 4 mM (inactive)
6,C=CC1=C(C)/C(=C/c2[nH]c(Cc3[nH]c(/C=C4\NC(=O)C(C)=C4C=C)c(C)c3CCC(=O)O)c(CCC(=O)O)c2C)NC1=O,> 4 mM (inactive)
7,COc1ccc(-c2ccc(=O)n(CC(N)=O)n2)cc1,> 4 mM (inactive)
8,Cc1nn(CC(=O)N2CCCCC2)c(=O)c2ccccc12,> 4 mM (inactive)
9,COc1c2c(cc3c1OCO3)C13C=C[C@H](OC)CC1N(C2)CC3O (some centres undefined),> 4 mM (inactive)
10,c1ccc(-n2nnnc2Oc2cccc3cccnc23)cc1,> 4 mM (inactive)
11,O=C(NCCO)c1cc2ccccc2cc1O,> 4 mM (inactive)
12,O=C(O)c1ccc(Oc2ccccc2)nc1,> 4 mM (inactive)
13,O=C1NC(=O)C(c2ccccc2)C(=O)N1,> 4 mM (inactive)
14,Cn1nc(C(=O)NCc2cccnc2)c2ccccc2c1=O,> 4 mM (inactive)
15,Cc1nn(C)c(C)c1NC(=S)NC1CCCC1,> 4 mM (inactive)
16,Cc1nc(-c2cc(CO)no2)cs1,> 4 mM (inactive)
17,COc1ccc([C@@H](C)C(=O)c2ccc(O)cc2O)cc1,> 4 mM (inactive)
18,CSCCNC(C)=O,> 4 mM (inactive)
19,O=C(O)c1ccccc1N1CCOCC1,> 4 mM (inactive)
20,CC(=O)Nc1ccc(C(=O)NC2CCSC2=O)cc1 (centres undefined),> 4 mM (inactive)
21,Cc1ccc(C)n1NC(=O)c1ccco1,> 4 mM (inactive)
22,O=c1[nH]c(=O)n(-c2ccc(F)cc2)c(O)c1/C=C1/C=CC=N1,> 4 mM (inactive)
23,NS(=O)(=O)c1ccc2c(c1)OCCO2,> 4 mM (inactive)
